Experimental data: the NIST ThermoML archive (doi:10.1016/j.jct.2018.11.014)

Assay: molar heat capacity at constant pressure
Details: 101.33 kPa, Crystal, Vacuum adiabatic calorimetry

O=C(CO)[C@H](O)[C@H](O)[C@H](O)CO [D-psicose]
Details | molar heat capacity at constant pressure [J/K/mol]
123.06 K | 95.25
123.75 K | 95.92
124.29 K | 96.23
124.5 K | 96.3
125.14 K | 96.92
125.8 K | 97.36
125.92 K | 97.34
126.54 K | 97.93
127.3 K | 98.49
127.33 K | 98.38
127.93 K | 98.98
128.73 K | 99.42
128.78 K | 99.54
129.31 K | 99.93
130 K | 100.42
130.16 K | 100.47
130.29 K | 100.63
130.71 K | 100.99
131.62 K | 101.53
131.84 K | 101.76
132.14 K | 102.08
133.07 K | 102.57
133.37 K | 102.87
133.59 K | 103.04
134.51 K | 103.62
134.89 K | 103.97
135.06 K | 104.17
135.94 K | 104.68
136.44 K | 105.12
136.51 K | 105.24
137.4 K | 105.69
137.99 K | 106.23
138.07 K | 106.25
138.89 K | 106.78
139.5 K | 107.37
139.73 K | 107.46
140 K | 107.65
140.36 K | 107.86
141 K | 108.43
141.38 K | 108.63
141.83 K | 108.94
142.49 K | 109.66
143.02 K | 109.81
143.29 K | 109.97
143.97 K | 110.56
144.64 K | 111.02
144.78 K | 111.03
145.47 K | 111.62
146.29 K | 112.11
146.3 K | 112.15
147.05 K | 112.77
147.84 K | 113.18
147.99 K | 113.34
148.65 K | 113.9
149.42 K | 114.29
149.66 K | 114.52
150 K | 114.81
150.25 K | 115.05
150.99 K | 115.45
151.33 K | 115.73
151.83 K | 116.23
152.59 K | 116.62
152.98 K | 116.92
153.45 K | 117.32
154.22 K | 117.72
154.66 K | 118.11
155.09 K | 118.5
155.87 K | 118.94
156.38 K | 119.3
156.72 K | 119.64
157.54 K | 120.08
158.08 K | 120.68
158.34 K | 120.83
159.19 K | 121.26
159.8 K | 121.76
159.95 K | 121.9
160 K | 121.93
160.88 K | 122.45
161.55 K | 122.94
161.59 K | 123.12
162.65 K | 123.73
163.25 K | 124.33
163.33 K | 124.2
164.46 K | 125
164.91 K | 125.57
165.14 K | 125.56
166.25 K | 126.31
166.6 K | 126.8
166.94 K | 126.82
168.04 K | 127.62
168.33 K | 127.92
168.72 K | 128.08
169.85 K | 128.88
170 K | 129.01
170.09 K | 129.15
170.5 K | 129.38
171.7 K | 130.21
171.88 K | 130.42
172.31 K | 130.62
173.54 K | 131.46
173.65 K | 131.69
174.14 K | 131.92
175.36 K | 132.69
175.42 K | 132.94
175.97 K | 133.17
177.18 K | 134.01
177.23 K | 134.2
177.78 K | 134.49
179.06 K | 135.42
179.11 K | 135.51
179.59 K | 135.75
180 K | 136.08
181.01 K | 136.76
181.03 K | 136.92
181.46 K | 137.08
182.93 K | 138.2
182.95 K | 138.09
183.4 K | 138.47
184.83 K | 139.53
184.88 K | 139.49
185.32 K | 139.84
186.71 K | 140.84
186.79 K | 140.88
187.28 K | 141.21
188.62 K | 142.21
188.74 K | 142.23
189.26 K | 142.58
190 K | 143.15
190.56 K | 143.63
190.71 K | 143.67
191.28 K | 144.05
192.49 K | 144.97
192.68 K | 145.06
193.32 K | 145.45
194.41 K | 146.37
194.63 K | 146.4
195.35 K | 146.92
196.32 K | 147.62
196.58 K | 147.65
197.38 K | 148.33
198.25 K | 149.1
198.55 K | 149.16
199.39 K | 149.76
200 K | 150.21
200.22 K | 150.43
200.55 K | 150.56
201.43 K | 151.19
202.17 K | 151.83
202.58 K | 152.06
203.5 K | 152.67
204.12 K | 153.18
204.65 K | 153.53
205.56 K | 154.09
206.7 K | 154.98
207.61 K | 155.56
208.78 K | 156.4
209.65 K | 157.04
210 K | 157.3
210.89 K | 157.92
211.72 K | 158.49
212.99 K | 159.44
213.81 K | 160.01
215.07 K | 160.9
215.9 K | 161.43
217.15 K | 162.36
217.98 K | 163.06
219.31 K | 163.88
220 K | 164.4
220.04 K | 164.46
221.53 K | 165.48
222.21 K | 165.84
223.74 K | 167.09
224.47 K | 167.6
225.94 K | 168.64
226.71 K | 169.21
228.14 K | 170.2
228.95 K | 170.75
230 K | 171.54
230.36 K | 171.83
231.25 K | 172.46
232.61 K | 173.46
233.65 K | 174.15
234.87 K | 174.98
236.07 K | 175.9
237.14 K | 176.72
238.49 K | 177.45
239.4 K | 178.38
240 K | 178.72
240.95 K | 179.37
241.69 K | 179.82
243.45 K | 181.14
244.01 K | 181.62
245.99 K | 183.07
246.32 K | 183.25
248.54 K | 184.87
248.61 K | 184.95
250 K | 185.94
250.9 K | 186.65
251.09 K | 186.81
253.21 K | 188.45
253.63 K | 188.66
255.55 K | 189.85
256.15 K | 190.4
257.88 K | 191.75
258.7 K | 192.25
260 K | 193.15
260.93 K | 193.78
263.32 K | 195.6
265.71 K | 197.22
268.09 K | 199.02
270 K | 200.36
270.5 K | 200.87
272.99 K | 202.45
275.52 K | 204.17
278.04 K | 206.05
280 K | 207.59
280.55 K | 207.87
281.85 K | 208.9
282.34 K | 209.34
283.14 K | 209.63
284.44 K | 210.76
284.81 K | 211
285.82 K | 211.74
287.07 K | 212.81
287.31 K | 212.9
288.48 K | 213.7
289.68 K | 214.75
289.9 K | 214.79
290 K | 214.85
291.13 K | 215.63
292.28 K | 216.49
292.52 K | 216.73
293.77 K | 217.6
294.87 K | 218.44
295.13 K | 218.64
296.44 K | 219.94
297.49 K | 220.33
298.15 K | 220.79
299.14 K | 221.01
300 K | 222.14
300.13 K | 222.34
301.82 K | 223.5
302.77 K | 224.25
304.49 K | 225.49
305.39 K | 226.09
307.15 K | 227.47
308 K | 228.01
309.84 K | 229.4
310 K | 229.48
310.63 K | 229.95
312.56 K | 231.38
313.29 K | 231.87
315.26 K | 233.4
315.94 K | 233.92
318.01 K | 235.4
318.58 K | 235.78
320 K | 236.88
320.81 K | 237.33
321.2 K | 237.81
323.64 K | 239.66
323.85 K | 239.71
326.49 K | 241.59
326.53 K | 241.79
329.19 K | 243.75
329.33 K | 243.86
330 K | 244.34
